ChEMBL document CHEMBL1148888, “Synthesis and antibacterial activity of 5-deoxy-5-episubstituted arbekacin derivatives” (2007)
Values after ≈ are worked out from the molar mass of the structure shown.

What was measured:
Assay type in all cases: functional
Staphylococcus aureus [1] = assay: Antibacterial activity against methicillin-resistant Staphylococcus aureus MSC03571 by agar dilution method
Pseudomonas aeruginosa [2] = assay: Antibacterial activity against Pseudomonas aeruginosa PAO1 by agar dilution method
Pseudomonas aeruginosa [3] = assay: Antibacterial activity against Pseudomonas aeruginosa GN315 by agar dilution method
Staphylococcus aureus [4] = assay: Antibacterial activity against Staphylococcus aureus 209P JC1 by agar dilution method
Staphylococcus aureus [5] = assay: Antibacterial activity against methicillin-resistant Staphylococcus aureus MF490 by agar dilution method
Escherichia coli = assay: Antibacterial activity against Escherichia coli NIH JC2 by agar dilution method
Pseudomonas aeruginosa [6] = assay: Antibacterial activity against Pseudomonas aeruginosa N101 by agar dilution method
Staphylococcus aureus [7] = assay: Antibacterial activity against methicillin-resistant Staphylococcus aureus by agar dilution method
[8] = Staphylococcus aureus, read-out: MIC
[9] = Pseudomonas aeruginosa, PAO1, read-out: MIC
[10] = Pseudomonas aeruginosa, read-out: MIC
[11] = Staphylococcus aureus, 209P JC1, read-out: MIC
[12] = Escherichia coli, NIH JC2, read-out: MIC
[13] = Staphylococcus aureus, read-out: MIC50
[14] = Staphylococcus aureus, read-out: MIC90

Row | Compound | MIC (Staphylococcus aureus [1]; [8]) [mg/L] | MIC (Pseudomonas aeruginosa [2]; [9]) [mg/L] | MIC (Pseudomonas aeruginosa [3]; [10]) [mg/L] | MIC (Staphylococcus aureus [4]; [11]) [mg/L] | MIC (Staphylococcus aureus [5]; [8]) [mg/L] | MIC (Escherichia coli; [12]) [mg/L] | MIC (Pseudomonas aeruginosa [6]; [10]) [mg/L] | MIC50 (Staphylococcus aureus [7]; [13]) [mg/L] | MIC90 (Staphylococcus aureus [7]; [14]) [mg/L] | MIC (Staphylococcus aureus [1]) [mg/L] | MIC (Staphylococcus aureus [5]) [mg/L] | MIC (Pseudomonas aeruginosa [6]) [mg/L] | MIC50 (Staphylococcus aureus [7]) [mg/L] | MIC90 (Staphylococcus aureus [7]) [mg/L] | MIC (Pseudomonas aeruginosa [2]) [mg/L] | MIC (Pseudomonas aeruginosa [3]) [mg/L] | MIC (Staphylococcus aureus [4]) [mg/L] | MIC (Escherichia coli) [mg/L]
1 | CN[C@@H]1[C@@H](O)[C@@H](O[C@@H]2[C@H](O)[C@H](O[C@H]3O[C@H](CN)CC[C@H]3N)[C@@H](N)C[C@H]2NC(=O)[C@@H](O)CCN)O[C@H](CO)[C@H]1O | 16 (≈ 28.2 µM) | 2 (≈ 3.53 µM) | 32 (≈ 56.5 µM) | 0.13 (≈ 0.229 µM) | 4 (≈ 7.06 µM) | 2 (≈ 3.53 µM) |  |  |  |  |  |  |  |  |  |  |  | 
2 | NCC[C@H](O)C(=O)N[C@@H]1C[C@H](N)[C@@H](O[C@H]2O[C@H](CN)CC[C@H]2N)[C@@H](Cl)[C@H]1O[C@H]1O[C@H](CO)[C@@H](O)[C@H](N)[C@H]1O | 6.25 (≈ 10.9 µM) | 2 (≈ 3.5 µM) | 50 (≈ 87.6 µM) | 0.1 (≈ 0.175 µM) | 3.13 (≈ 5.48 µM) | 1.56 (≈ 2.73 µM) | 0.5 (≈ 0.876 µM) |  |  |  |  |  |  |  |  |  |  | 
3 | NCC[C@H](O)C(=O)N[C@@H]1C[C@H](N)[C@@H](O[C@H]2O[C@H](CN)CC[C@H]2N)[C@@H](N)[C@H]1O[C@H]1O[C@H](CO)[C@@H](O)[C@H](N)[C@H]1O | 4 (≈ 7.25 µM) | 2 (≈ 3.63 µM) | 16 (≈ 29 µM) | 0.13 (≈ 0.236 µM) | 2 (≈ 3.63 µM) | 2 (≈ 3.63 µM) | 0.5 (≈ 0.906 µM) | 0.5 (≈ 0.906 µM) | 0.5 (≈ 0.906 µM) |  |  |  |  |  |  |  |  | 
4 | NCC[C@H](O)C(=O)N[C@@H]1C[C@H](N)[C@@H](O[C@H]2O[C@H](CN)CC[C@H]2N)[C@@H](NCc2ccccc2)[C@H]1O[C@H]1O[C@H](CO)[C@@H](O)[C@H](N)[C@H]1O | 32 (≈ 49.9 µM) | 32 (≈ 49.9 µM) | 128 (≈ 199 µM) | 0.13 (≈ 0.203 µM) | 8 (≈ 12.5 µM) | 4 (≈ 6.23 µM) | 1 (≈ 1.56 µM) |  |  |  |  |  |  |  |  |  |  | 
5 | NCCN[C@H]1[C@@H](O[C@H]2O[C@H](CO)[C@@H](O)[C@H](N)[C@H]2O)[C@H](NC(=O)[C@@H](O)CCN)C[C@H](N)[C@H]1O[C@H]1O[C@H](CN)CC[C@H]1N | 4 (≈ 6.73 µM) | 2 (≈ 3.36 µM) | 64 (≈ 108 µM) | 0.13 (≈ 0.219 µM) | 2 (≈ 3.36 µM) | 4 (≈ 6.73 µM) |  |  |  |  |  |  |  |  |  |  |  | 
6 | CN[C@H]1[C@@H](O[C@H]2O[C@H](CO)[C@@H](O)[C@H](N)[C@H]2O)[C@H](NC(=O)[C@@H](O)CCN)C[C@H](N)[C@H]1O[C@H]1O[C@H](CN)CC[C@H]1N | 16 (≈ 28.3 µM) | 4 (≈ 7.07 µM) | 128 (≈ 226 µM) | 0.25 (≈ 0.442 µM) | 4 (≈ 7.07 µM) | 2 (≈ 3.54 µM) |  |  |  |  |  |  |  |  |  |  |  | 
7 | CN(C)[C@H]1[C@@H](O[C@H]2O[C@H](CO)[C@@H](O)[C@H](N)[C@H]2O)[C@H](NC(=O)[C@@H](O)CCN)C[C@H](N)[C@H]1O[C@H]1O[C@H](CN)CC[C@H]1N | > 64 | 32 (≈ 55.2 µM) | > 32 | 1 (≈ 1.73 µM) | 32 (≈ 55.2 µM) | 16 (≈ 27.6 µM) |  |  |  |  |  |  |  |  |  |  |  | 
8 | NCC[C@H](O)C(=O)N[C@@H]1C[C@H](N)[C@@H](O[C@H]2O[C@H](CN)CC[C@H]2N)C(O)[C@H]1O[C@H]1O[C@H](CO)[C@@H](O)[C@H](N)[C@H]1O (single isomer, unassigned; form 1) [ARBEKACIN] |  | 2 (≈ 3.62 µM) | 8 (≈ 14.5 µM) | 0.06 (≈ 0.109 µM) |  | 1 (≈ 1.81 µM) | 0.25 (≈ 0.452 µM) | 0.5 (≈ 0.905 µM) | 1 (≈ 1.81 µM) | 2 (≈ 3.62 µM) | 2 (≈ 3.62 µM) |  |  |  |  |  |  | 
9 | NCC[C@H](O)C(=O)N[C@@H]1C[C@H](N)[C@@H](O[C@H]2O[C@H](CN)CC[C@H]2N)C(O)[C@H]1O[C@H]1O[C@H](CO)[C@@H](O)[C@H](N)[C@H]1O (single isomer, unassigned; form 2) [ARBEKACIN] |  |  |  |  |  |  |  |  |  | 16 (≈ 29 µM) | 64 (≈ 116 µM) | 0.25 (≈ 0.452 µM) | 1 (≈ 1.81 µM) | 2 (≈ 3.62 µM) | 2 (≈ 3.62 µM) | 16 (≈ 29 µM) | 0.06 (≈ 0.109 µM) | 1 (≈ 1.81 µM)
